A word on the pIC50: it is the negative decadic logarithm of the IC50, by convention in mol/L.

This assay deals with T1, Dual specificity protein phosphatase 1 (Homo sapiens, UniProt P28562).
T1 sequence (P28562 whole entry): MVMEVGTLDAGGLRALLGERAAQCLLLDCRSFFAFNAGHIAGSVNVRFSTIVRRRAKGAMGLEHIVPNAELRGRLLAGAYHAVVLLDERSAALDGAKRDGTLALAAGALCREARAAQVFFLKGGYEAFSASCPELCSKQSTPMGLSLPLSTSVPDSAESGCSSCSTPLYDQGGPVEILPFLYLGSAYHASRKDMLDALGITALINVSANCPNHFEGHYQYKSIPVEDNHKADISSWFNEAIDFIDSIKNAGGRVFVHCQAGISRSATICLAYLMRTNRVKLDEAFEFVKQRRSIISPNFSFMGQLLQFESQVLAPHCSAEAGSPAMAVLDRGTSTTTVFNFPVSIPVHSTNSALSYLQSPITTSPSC
The assay is described as follows: MKP-1 phosphatase inhibitors, dose response, biochemical, probe assessment (AID 674).

SMILES strings stand for the structures. pIC50: −log10 of the molar value.

Regarding `O=C(Nc1ccc2nc(-c3ccco3)c(-c3ccco3)nc2c1)N1CCCCCC1`, the pIC50 was under 4.30. The compound `Cc1ccc2c(c1C)NC(C(=O)O)C1CC=CC21` (stereo not drawn) showed a negative-log IC50 (pIC50) of 4.37. The figure for `O=C(O)C1Nc2c(O)cccc2C2C=CCC12` (stereo not drawn) is under 4.30; for `Cn1ncnc2c(=O)n(C)c(=O)nc1-2` it is 6.37. In turn, `[O-]/[N+](=C\c1ccncc1)c1ccccc1` showed a pIC50 of under 4.30. In turn, `COc1cccc2c(C)c(C(=O)O)[nH]c12` gave a negative logarithm of the IC50 (pIC50) of under 4.30.

Consider `O=C1C=Cc2ccccc2C1=O` [1,2-dihydronaphthalene-1,2-dione], for which the pIC50 was under 4.30. The figure for `CCn1nc(-c2ccccc2)nc2c(=O)n(C)c(=O)nc1-2` [1-Ethyl-6-methyl-3-phenyl-1H-pyrimido[5,4-e][1,2,4]triazine-5,7-dione] is 6.31.

In turn, `[O-]/[N+](=C\c1ccc(OC(F)F)cc1)c1ccccc1` [1-[4-(difluoromethoxy)phenyl]-N-phenylmethanimine oxide] gave a pIC50 of under 4.30. As to `CCn1nc(-c2cccs2)nc2c(=O)n(C)c(=O)nc1-2` [1-ethyl-6-methyl-3-thiophen-2-yl-pyrimido[5,4-e][1,2,4]triazine-5,7-dione], the pIC50 is 6.48.

For the compound `O=C1Cc2ccccc2C(=O)N1CCc1ccccc1` [2-(2-phenylethyl)-4H-isoquinoline-1,3-dione], the pIC50 was under 4.30. On to `N#Cc1c(N)sc(=S)c2c1CCN(Cc1ccccc1)C2` [3-Amino-7-benzyl-1-thioxo-5,6,7,8-tetrahydro-1H-thiopyrano[3,4-c]pyridine-4-carbonitrile], for which the pIC50 was 5.62. For `Cc1ccccc1Nc1cc2ccccc2c(O)n1` [3-[(2-methylphenyl)amino]-2H-isoquinolin-1-one], the negative-log IC50 (pIC50) was 5.06. Compound `COc1ccc(Br)cc1C=c1sc2nc(-c3ccco3)nn2c1=O` [5-[(5-bromanyl-2-methoxy-phenyl)methylidene]-2-(furan-2-yl)-[1,3]thiazolo[3,2-b][1,2,4]triazol-6-one] gave a pIC50 of 5.15. Regarding `CC(=O)Nc1cc(OC(C)=O)c2nonc2c1OC(C)=O` [Acetic acid 7-acetoxy-5-acetylamino-benzo[1,2,5]oxadiazol-4-yl ester], the pIC50 was under 4.30. `CCOC(=O)C(C(=O)OCC)c1cc(Br)c2noc3c2c1C(=O)c1ccccc1-3` [MLS000038842]: the negative-log IC50 (pIC50) was under 4.30. As for `Oc1nc(Nc2ccccc2)cc2ccccc12` [MLS000043701], the pIC50 is 4.97.

For the compound `O=C1C=Cc2ccccc2/C1=C/NC12CN3CCN(CN(C3)C1)C2` [MLS000071484], the negative-log IC50 (pIC50) is under 4.30. As to `Cc1c(N=c2c(=O)c3ccccc3c2=O)c(=O)n(-c2ccccc2)n1C` [MLS000105950], the pIC50 was 4.36. `CCOc1ccc2noc3c2c1C(=O)c1ccccc1-3` [MLS000106837] showed a pIC50 of under 4.30.

As for `COc1ccc2noc3c2c1C(=O)c1ccccc1-3` [MLS000106874], the pIC50 is under 4.30. On to `c1ccc(CSc2nnc(-c3ccco3)c(-c3ccco3)n2)cc1` [MLS-0029114.0001], for which the pIC50 was under 4.30. `Cc1ccc2c(c1)C1C=CCC1C(C(=O)O)N2` (stereo not drawn) [MLS-0067149.0001] gave a negative-log IC50 (pIC50) of under 4.30. Compound `O=C(NC1(O)C(=O)c2ccccc2C1=O)c1ccccc1` [N-(2-hydroxy-1,3-dioxo-2-indenyl)benzamide] showed a negative logarithm of the IC50 (pIC50) of under 4.30. Then `COc1cccc2c1NC(C(=O)O)C1CC=CC21` (stereo not drawn) [SMR000009698], with under 4.30; and `O=C(OC1CCCCC1)c1ccc2c(c1)C1C=CCC1C(C(=O)O)N2` (stereo not drawn) [SMR000019385], with 5.34; and `N#Cc1c(N2CCCC2)nc(N)c2c(N)nc(N3CCCC3)cc12` [SMR000061605], with 4.83. The compound `Nc1cccc2cnccc12` [isoquinolin-5-amine] gave a pIC50 of under 4.30.

The values are drawn from BindingDB's records for doi:10.7270/Q28K77GS (University of Pittsburgh, 2007).
